# Measurements reported in ChEMBL document CHEMBL5241069, “A key review on oxadiazole analogs as potential methicillin-resistant Staphylococcus aureus (MRSA) activity: Structure-activity relationship studies” (Eur J Med Chem, 2021).
# Tests used:
# Staphylococcus aureus [1] = experiment: microbe, parasite or virus in culture; conditions: 032
# Description: Antibacterial activity against methicillin resistant Staphylococcus aureus 032 assessed as inhibition of bacterial growth by CLSI protocol based serial dilution method
# Staphylococcus aureus [2] = experiment: Antibacterial activity methicillin resistant Staphylococcus aureus 2658 RCMB assessed as inhibition of bacterial growth by broth microdilution method; type: functional
# Staphylococcus aureus [3] = experiment: Antibacterial activity against methicillin resistant Staphylococcus aureus assessed as inhibition zone by disc diffusion method; type: functional; also: test concentration or dose not given here
# Staphylococcus aureus [4] = experiment: Antibacterial activity against methicillin resistant Staphylococcus aureus assessed as inhibition of bacterial growth by broth dilution technique; type: functional
# Staphylococcus aureus [5] = experiment: Antibacterial activity against methicillin resistant Staphylococcus aureus 181 assessed as inhibition of bacterial growth; type: functional
# Staphylococcus aureus [6] = experiment: Antibacterial activity against methicillin resistant Staphylococcus aureus 128 assessed as inhibition of bacterial growth; type: functional
# Staphylococcus aureus [7] = experiment: Antibacterial activity against methicillin resistant Staphylococcus aureus 42 assessed as inhibition of bacterial growth; type: functional
# Staphylococcus aureus [8] = experiment: Antibacterial activity against methicillin resistant Staphylococcus aureus 747 assessed as inhibition of bacterial growth; type: functional
# Staphylococcus aureus [9] = experiment: Antibiofilm activity against methicillin resistant Staphylococcus aureus ATCC 43866 assessed as inhibition of biofilm formation incubated for 18 to 24 hrs by tissue culture plate method; type: functional; conditions: time 18-24 hrs
# Staphylococcus aureus [10] = experiment: Antimicrobial activity against methicillin resistant Staphylococcus aureus 2 assessed as inhibition of bacterial growth incubated for 16 to 20 hrs by CLSI protocol based Muller-Hinton broth method; type: functional; conditions: time 16-20 hrs
# Staphylococcus aureus [11] = experiment: Antimicrobial activity against methicillin resistant Staphylococcus aureus 1 assessed as inhibition of bacterial growth incubated for 16 to 20 hrs by CLSI protocol based Muller-Hinton broth method; type: functional; conditions: time 16-20 hrs
# Staphylococcus aureus [12] = experiment: Antimicrobial activity against methicillin resistant Staphylococcus aureus 3 assessed as inhibition of bacterial growth incubated for 16 to 20 hrs by CLSI protocol based Muller-Hinton broth method; type: functional; conditions: time 16-20 hrs
# Staphylococcus aureus [13] = experiment: Antimicrobial activity against methicillin resistant Staphylococcus aureus 2658 RCMB assessed as inhibition of bacterial growth incubated for 20 hrs by CLSI protocol based broth microdilution method; type: functional
compound,measurement,setting,value
Cc1ccc2occ(/C=C(/c3ccc([N+](=O)[O-])cc3)c3noc(C)n3)c(=O)c2c1,MIC,Staphylococcus aureus [1],> 32 µg/mL
Cc1nc(-c2ccc(C(C)(C)C)cc2)sc1-c1nnc(NC(=N)c2ccncc2)o1,MIC,Staphylococcus aureus [2],> 50 µg/mL
CCCCCCCC/C=C/CCCCCCc1nnc(-c2ccco2)o1,inhibition zone (IZ),Staphylococcus aureus [3],20.8 mm
same,MIC,Staphylococcus aureus [4],12.5 µg/mL
CCCC(O)C/C=C/CCCCCCc1nnc(-c2ccco2)o1 (stereo not given),inhibition zone (IZ),Staphylococcus aureus [3],18.3 mm
same,MIC,Staphylococcus aureus [4],12.5 µg/mL
CCCCCCCCCCCCCCC(Br)c1nnc(-c2ccccc2Cl)o1 (stereo not given),inhibition zone (IZ),Staphylococcus aureus [3],20.5 mm
same,MIC,Staphylococcus aureus [4],12.5 µg/mL
O=c1c(Br)cnc2onc(-c3c(F)cccc3F)n12,MIC,Staphylococcus aureus [5],40.2 µg/mL
same,MIC,Staphylococcus aureus [6],32.4 µg/mL
same,MIC,Staphylococcus aureus [7],15.8 µg/mL
same,MIC,Staphylococcus aureus [8],40.2 µg/mL
O=c1c(Br)cnc2onc(-c3cccc(F)c3F)n12,MIC,Staphylococcus aureus [5],42.1 µg/mL
same,MIC,Staphylococcus aureus [6],37.8 µg/mL
same,MIC,Staphylococcus aureus [7],20.8 µg/mL
same,MIC,Staphylococcus aureus [8],42.1 µg/mL
O=c1c(F)cnc2onc(-c3ccccc3Cl)n12,MIC,Staphylococcus aureus [5],≥ 125 µg/mL
same,MIC,Staphylococcus aureus [6],≥ 125 µg/mL
same,MIC,Staphylococcus aureus [7],≥ 125 µg/mL
same,MIC,Staphylococcus aureus [8],≥ 125 µg/mL
Cn1c(-c2nnc(Cc3ccccc3)o2)cc(Br)c1Br,MIC,Staphylococcus aureus [9],6.25 µg/mL
O=c1c(Br)cnc2onc(-c3cccc(Cl)c3Cl)n12,MIC,Staphylococcus aureus [5],≥ 125 µg/mL
same,MIC,Staphylococcus aureus [6],90.3 µg/mL
same,MIC,Staphylococcus aureus [7],86.2 µg/mL
same,MIC,Staphylococcus aureus [8],≥ 125 µg/mL
CC[C@H]1OC(=O)[C@H](C)[C@@H](O[C@H]2C[C@@](C)(OC)[C@@H](O)[C@H](C)O2)[C@H](C)[C@@H](O[C@@H]2O[C@H](C)C[C@H](N(C)C)[C@H]2O)[C@](C)(O)C[C@@H](C)C(=O)[C@H](C)[C@@H](O)[C@]1(C)O [ERYTHROMYCIN],MIC,Staphylococcus aureus [1],> 32 µg/mL
Cc1nc(/C(=C\c2coc3ccccc3c2=O)c2ccc([N+](=O)[O-])cc2)no1,MIC,Staphylococcus aureus [1],> 32 µg/mL
CCn1cc(C(=O)O)c(=O)c2cc(F)c(N3CCN(Cc4nnc(-c5cccc(C)c5)o4)CC3)cc21,MIC,Staphylococcus aureus [10],1 µg/mL
same,MIC,Staphylococcus aureus [11],1 µg/mL
same,MIC,Staphylococcus aureus [12],2 µg/mL
COc1ccc(-c2nnc(-c3cc(Br)c(Br)n3C)o2)cc1,MIC,Staphylococcus aureus [9],1.56 µg/mL
CCn1cc(C(=O)O)c(=O)c2cc(F)c(N3CCNCC3)cc21 [NORFLOXACIN],MIC,Staphylococcus aureus [10],2 µg/mL
same,MIC,Staphylococcus aureus [11],1 µg/mL
same,MIC,Staphylococcus aureus [12],1 µg/mL
O=c1c(Br)cnc2onc(-c3ccc(Cl)cc3)n12,MIC,Staphylococcus aureus [5],53.6 µg/mL
same,MIC,Staphylococcus aureus [6],96.3 µg/mL
same,MIC,Staphylococcus aureus [7],96.4 µg/mL
same,MIC,Staphylococcus aureus [8],59.4 µg/mL
CCn1cc(C(=O)O)c(=O)c2cc(F)c(N3CCN(Cc4nnc(-c5ccccc5C)o4)CC3)cc21,MIC,Staphylococcus aureus [10],0.5 µg/mL
same,MIC,Staphylococcus aureus [11],1 µg/mL
same,MIC,Staphylococcus aureus [12],2 µg/mL
Cc1nc(/C(=C\c2coc3ccc(Br)cc3c2=O)c2ccc([N+](=O)[O-])cc2)no1,MIC,Staphylococcus aureus [1],> 32 µg/mL
CCn1cc(C(=O)O)c(=O)c2cc(F)c(N3CCN(Cc4nnc(-c5ccc(OC)cc5)o4)CC3)cc21,MIC,Staphylococcus aureus [10],0.5 µg/mL
same,MIC,Staphylococcus aureus [11],1 µg/mL
same,MIC,Staphylococcus aureus [12],1 µg/mL
CO/N=C(\C(=O)N[C@@H]1C(=O)N2C(C(=O)[O-])=C(C[N+]3(C)CCCC3)CS[C@H]12)c1csc(N)n1,MIC,Staphylococcus aureus [5],15.2 µg/mL
same,MIC,Staphylococcus aureus [6],20 µg/mL
same,MIC,Staphylococcus aureus [7],36.5 µg/mL
same,MIC,Staphylococcus aureus [8],26.9 µg/mL
Cn1c(-c2nnc(-c3ccncc3)o2)cc(Br)c1Br,MIC,Staphylococcus aureus [9],3.12 µg/mL
O=c1c(Br)cnc2onc(-c3ccc(Br)cc3)n12,MIC,Staphylococcus aureus [5],≥ 125 µg/mL
same,MIC,Staphylococcus aureus [6],120 µg/mL
same,MIC,Staphylococcus aureus [7],114 µg/mL
same,MIC,Staphylococcus aureus [8],≥ 125 µg/mL
Cc1nc(/C(=C\c2coc3cc(C)c(Cl)cc3c2=O)c2ccc([N+](=O)[O-])cc2)no1,MIC,Staphylococcus aureus [1],16 µg/mL
Cc1nc(/C(=C\c2coc3ccc(Cl)cc3c2=O)c2ccc([N+](=O)[O-])cc2)no1,MIC,Staphylococcus aureus [1],> 32 µg/mL
O=c1c(F)cnc2onc(-c3ccc(Cl)cc3)n12,MIC,Staphylococcus aureus [5],≥ 125 µg/mL
same,MIC,Staphylococcus aureus [6],≥ 125 µg/mL
same,MIC,Staphylococcus aureus [7],111 µg/mL
same,MIC,Staphylococcus aureus [8],≥ 125 µg/mL
Cc1nc(-c2ccc(C(C)(C)C)cc2)sc1-c1nnc(NC(=N)c2ccccn2)o1,MIC,Staphylococcus aureus [2],> 50 µg/mL
Cc1nc(/C(=C\c2coc3c(Cl)cc(Cl)cc3c2=O)c2ccc([N+](=O)[O-])cc2)no1,MIC,Staphylococcus aureus [1],32 µg/mL
Cn1c(-c2nnc(-c3cc(F)ccc3Cl)o2)cc(Br)c1Br,MIC,Staphylococcus aureus [9],3.12 µg/mL
CCn1cc(C(=O)O)c(=O)c2cc(F)c(N3CCN(Cc4nnc(-c5ccccc5Cl)o4)CC3)cc21,MIC,Staphylococcus aureus [10],1 µg/mL
same,MIC,Staphylococcus aureus [11],0.5 µg/mL
same,MIC,Staphylococcus aureus [12],1 µg/mL
CNC(=N)Nc1nnc(-c2sc(-c3ccc4ccccc4c3)nc2C)o1,MIC,Staphylococcus aureus [13],3.9 µg/mL
CC1(C)S[C@@H]2[C@H](NC(=O)[C@H](N)c3ccccc3)C(=O)N2[C@H]1C(=O)O [AMPICILLIN],MIC,Staphylococcus aureus [1],> 32 µg/mL
O=c1c(Br)cnc2onc(-c3ccccc3Cl)n12,MIC,Staphylococcus aureus [5],79.4 µg/mL
same,MIC,Staphylococcus aureus [6],84.4 µg/mL
same,MIC,Staphylococcus aureus [7],76.4 µg/mL
same,MIC,Staphylococcus aureus [8],79.4 µg/mL
C=CCCCCCCCc1nnc(-c2ccco2)o1,inhibition zone (IZ),Staphylococcus aureus [3],11.1 mm
same,MIC,Staphylococcus aureus [4],12.5 µg/mL
CCn1cc(C(=O)O)c(=O)c2cc(F)c(N3CCN(Cc4nnc(-c5ccc(F)cc5Cl)o4)CC3)cc21,MIC,Staphylococcus aureus [10],1 µg/mL
same,MIC,Staphylococcus aureus [11],1 µg/mL
same,MIC,Staphylococcus aureus [12],1 µg/mL
Cc1nc(-c2ccc3ccccc3c2)sc1-c1nnc(NC(=N)N)o1,MIC,Staphylococcus aureus [13],1.95 µg/mL
CCCCCCCCCCCCCCc1nnc(-c2ccccc2Cl)o1,inhibition zone (IZ),Staphylococcus aureus [3],12.1 mm
same,MIC,Staphylococcus aureus [4],12.5 µg/mL
